Target: T1, Receptor-interacting serine/threonine-protein kinase 1 (Homo sapiens, UniProt Q13546)
T1 sequence (Q13546 whole entry): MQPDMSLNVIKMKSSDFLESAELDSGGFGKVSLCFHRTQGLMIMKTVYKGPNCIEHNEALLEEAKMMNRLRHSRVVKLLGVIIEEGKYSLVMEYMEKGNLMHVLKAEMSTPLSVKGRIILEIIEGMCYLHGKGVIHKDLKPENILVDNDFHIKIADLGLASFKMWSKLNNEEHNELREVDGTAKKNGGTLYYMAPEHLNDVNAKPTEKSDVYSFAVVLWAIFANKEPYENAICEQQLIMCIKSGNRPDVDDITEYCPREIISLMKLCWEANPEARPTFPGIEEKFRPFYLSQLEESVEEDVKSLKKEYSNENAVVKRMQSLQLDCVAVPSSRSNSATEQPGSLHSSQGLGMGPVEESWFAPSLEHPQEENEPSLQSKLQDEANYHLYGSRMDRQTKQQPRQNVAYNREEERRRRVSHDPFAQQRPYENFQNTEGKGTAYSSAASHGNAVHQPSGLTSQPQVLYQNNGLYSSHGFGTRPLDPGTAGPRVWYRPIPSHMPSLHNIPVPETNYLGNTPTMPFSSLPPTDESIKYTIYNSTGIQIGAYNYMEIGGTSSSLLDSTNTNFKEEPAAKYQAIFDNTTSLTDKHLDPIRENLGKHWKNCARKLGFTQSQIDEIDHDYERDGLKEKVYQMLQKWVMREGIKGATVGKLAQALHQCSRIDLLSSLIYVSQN
Assay: Inhibition of recombinant N-terminal GST-tagged human RIPK1 (1 to 327 residues) expressed in baculovirus infected Sf9 insect cells preincubated for 40 mins followed by substrate addition and measured after 60 mins by ADP-glo luminescence assay

SMILES	EC50 [nM]
O=C(N1CC(Sc2ccc(Br)cc2)C1)N1N=CC[C@H]1c1cc(F)cc(F)c1	5.9
O=C(c1ccccc1)C1CN(C(=O)N2N=CC[C@H]2c2cc(F)cc(F)c2)C1	5.6

Now those with a lower EC50, led by results:

EC50 [nM]	SMILES
3.1	O=C(N1CC(Oc2ccccc2F)C1)N1N=CC[C@H]1c1cc(F)cc(F)c1
< 5.1	C[C@H]1[C@@H](Oc2ccc(F)cc2)CN1C(=O)N1N=CC[C@H]1c1ccc(Cl)cc1
3.8	O=C(N1CC(Oc2ccccc2)C1)N1N=CC[C@H]1c1cc(F)cc(F)c1

Source: ChEMBL document CHEMBL5038676, “Novel RIPK1 Inhibitors for Treating Neurodegenerative, Autoimmune, and Inflammatory Diseases” (ACS Med Chem Lett, 2022)
